Test results reported in US6610736B1, “16-Halogen-epothilone derivatives, method for producing them and their pharmaceutical use” (Schering AG, priority 1999, dated 2003).
pIC50: −log10 of the molar value.

What was measured:
[1] = tested on: human MCF-7 breast carcinoma cell line; test: growth inhibition of MCF-7 cells, crystal-violet assay; type: cell-based; settings: for pIC50: crystal-violet assay; for active strength in comparison to reference compound epothilone D: statement on Table 1; for active strength in comparison to reference compound epothilone B: statement on Table 2
Description: (§1) a) IC50 values [nM] for the growth inhibition of human MCF-7 breast- and multi-drug-resistant NCl/ADR carcinoma cell lines of the epothilone derivatives with 13Z-olefins in a crystal-violet assay in comparison to epothilone D.
(§2) b) IC50 values [nM] for the growth inhibition of human MCF-7 breast- and multidrug-resistant NCl/ADR carcinoma cell lines of the epothilone derivatives with 13,14-α-epoxide in a crystal-violet assay in comparison to epothilone B.

[2] = tested on: multi-drug-resistant NCl/ADR carcinoma cell line; test: growth inhibition of multi-drug-resistant NCl/ADR cells, crystal-violet assay; type: cell-based, human; settings: for pIC50: crystal-violet assay; for Selectivity = IC50 (NCl/ADR) : IC50 (MCF-7): ratio of IC50 NCl/ADR to MCF-7; for selectivity in multi-drug-resistant cell line NCl/ADR in comparison to epothilone B: statement on Table 2
Description: as §1, §2

[3] = Table 1, 13Z-olefins, in comparison to epothilone D
[4] = Table 2, 13,14-α-epoxides, in comparison to epothilone B

| Compound | pIC50 [1, 3] | pIC50 [2, 3] | Selectivity = IC50 (NCl/ADR) : IC50 (MCF-7) ([2]; Table 1) | pIC50 [1, 4] | pIC50 [2, 4] | Selectivity = IC50 (NCl/ADR) : IC50 (MCF-7) ([2]; Table 2) | active strength in comparison to reference compound epothilone D [1] | other results |
| --- | --- | --- | --- | --- | --- | --- | --- | --- |
| C/C1=C/C[C@@H](/C(F)=C/c2csc(C)n2)OC(=O)C[C@H](O)C2(CCC2)C(=O)[C@H](C)[C@@H](O)[C@@H](C)CCC1 [Example 9] | 8.30 | 8.00 | 2.0 | – | – | – | significantly higher active strength | – |
| C/C1=C/C[C@@H](/C(C)=C/c2csc(C)n2)OC(=O)C[C@H](O)C(C)(C)C(=O)[C@H](C)[C@@H](O)[C@@H](C)CCC1 [Epothilone D] | 7.64 | 7.30 | 2.2 | – | – | – | – | – |
| CC(=O)O[C@H]1C(=O)[C@@]2(C)[C@H]([C@H](OC(=O)c3ccccc3)[C@]3(O)C[C@H](OC(=O)[C@H](O)[C@@H](NC(=O)c4ccccc4)c4ccccc4)C(C)=C1C3(C)C)[C@]1(OC(C)=O)CO[C@@H]1C[C@@H]2O [Taxol, reference compound] | – | – | >>25 | – | < 7.00 | >>25 | – | pIC50 ([1]; Homo sapiens, MCF7, Table 1, 13Z-olefins, in comparison to epothilone D): 8.40; pIC50 ([2]; Homo sapiens, Table 1, 13Z-olefins, in comparison to epothilone D): < 7.00 |
| CC[C@H]1C(=O)C(C)(C)[C@@H](O)CC(=O)O[C@H](/C(F)=C/c2ccccn2)C/C=C(/C)CCC[C@H](C)[C@@H]1O [Example 17, (4S,7R,8S,9S,13Z,16S(Z))-4,8-Dihydroxy-16-(1-fluoro-2-(2-pyridyl)ethenyl)-7-ethyl-1-oxa-5,5,9,13-tetramethyl-cyclohexadec-13-ene-2,6-dione] | 8.21 | 7.48 | 5.4 | – | – | – | significantly higher active strength | – |
| C/C1=C/C[C@@H](/C(Cl)=C/c2csc(C)n2)OC(=O)C[C@H](O)C(C)(C)C(=O)[C@H](C)[C@@H](O)[C@@H](C)CCC1 [Example 5, (4S,7R,8S,9S,13(Z),16S(Z))-4,8-Dihydroxy-16-(1-chloro-2-(2-methyl-4-thiazolyl)ethenyl)-1-oxa-5,5,7,9,13-pentamethyl-cyclohexadec-13-ene-2,6-dione] | 8.29 | 7.43 | 7.3 | – | – | – | – | – |
| (4S,7R,8S,9S,13(Z),16S(Z)-4,8-Dihydroxy-9,13-diethyl-7-ethyl-16-(1-fluoro-2-(2-methyl-4-thiazolyl)ethenyl)-1-oxa-5,5-(1,3-trimethylene)cyclohexadec-13-ene-2,6-dione [Example 13] | 8.24 | 7.55 | 4.8 | – | – | – | significantly higher active strength | – |
| C/C(=C\c1csc(C)n1)[C@@H]1C[C@@H]2O[C@]2(C)CCC[C@H](C)[C@H](O)[C@@H](C)C(=O)C(C)(C)[C@@H](O)CC(=O)O1 [Epothilone B, reference compound] | – | – | – | 9.22 | 8.46 | 5.8 | – | – |
| C/C1=C/C[C@@H](/C(F)=C/c2csc(C)n2)OC(=O)C[C@H](O)C(C)(C)C(=O)[C@H](C)[C@@H](O)[C@@H](C)CCC1 [Example 1, (4S,7R,8S,9S,13(Z),16S(Z))-4,8-Dihydroxy-16-(1-fluoro-2-(2-methyl-4-thiazolyl)ethenyl)-1-oxa-5,5,7,9,13-pentamethyl-cyclohexadec-13-ene-2,6-dione] | 8.37 | 7.92 | 2.8 | – | – | – | significantly higher active strength | – |

Continued, in another order:

| pIC50 [1, 3] | pIC50 [2, 3] | Selectivity = IC50 (NCl/ADR) : IC50 (MCF-7) ([2]; Table 1) | pIC50 [1, 4] | pIC50 [2, 4] | Selectivity = IC50 (NCl/ADR) : IC50 (MCF-7) ([2]; Table 2) | Compound | active strength in comparison to reference compound epothilone D [1] | other results |
| --- | --- | --- | --- | --- | --- | --- | --- | --- |
| – | – | – | 8.68 | 8.41 | 1.9 | Cc1nc(C=C(F)C2CC3OC3(C)CCCC(C)C(O)C(C)C(=O)C3(CCC3)C(O)CC(=O)O2)cs1 [Example 10A, (1S,3S(Z),7S,10R,11S,12S,16R)-7,11-Dihydroxy-3-((1-fluoro)-2-(2-methyl-4-thiazolyl)ethenyl)-10,12,16-trimethyl-8,8-(1,3-trimethylene)-4,17-dioxabicyclo[14.1.0]hepta-deca-5,9-dione] | – | selectivity in multi-drug-resistant cell line NCl/ADR in comparison to epothilone B [2]: improved selectivity |
| – | – | – | 9.52 | 8.85 | 4.7 | Cc1nc(/C=C(\F)[C@@H]2C[C@@H]3O[C@]3(C)CCC[C@H](C)[C@H](O)[C@@H](C)C(=O)C(C)(C)[C@@H](O)CC(=O)O2)cs1 [Example 3B, (1S,3S(Z),7S,10R,11S,12S,16R)-7,11-dihydroxy-3-(1-fluoro-2-(2-methyl-4-thiazolyl)ethenyl)-8,8,10,12,16-pentamethyl-4,17-dioxabicyclo[14.1.0]heptadecane-5,9-dione] | – | active strength in comparison to reference compound epothilone B [1]: comparable or significantly higher active strength; selectivity in multi-drug-resistant cell line NCl/ADR in comparison to epothilone B [2]: improved selectivity |
| – | – | – | 9.22 | 8.34 | 7.6 | CC[C@H]1C(=O)C(C)(C)[C@@H](O)CC(=O)O[C@H](/C(F)=C/c2ccccn2)C[C@@H]2O[C@]2(C)CCC[C@H](C)[C@@H]1O [Example 20A, (1S,3S(Z),7S,10R,11S,12S,16R)-7,11-Dihydroxy-10-ethyl-3-(1-fluoro-2-(2-pyridyl)ethenyl)-8,8,12,16-tetramethyl-4,17-dioxabicyclo[14.1.0]heptadecane-5,9-dione] | – | active strength in comparison to reference compound epothilone B [1]: comparable or significantly higher active strength |
| – | – | – | 9.10 | 8.22 | 7.5 | Cc1nc(/C=C(\Cl)[C@@H]2C[C@@H]3O[C@]3(C)CCC[C@H](C)[C@H](O)[C@@H](C)C(=O)C(C)(C)[C@@H](O)CC(=O)O2)cs1 [Example 7A, (1S,3S(Z),7S,10R,11S,12S,16R)-7,11-Dihydroxy-3-(1-chloro-2-(2-methyl-4-thiazolyl)ethenyl)-8,8,10,12,16-pentamethyl-4,17-dioxabicyclo[14.1.0]heptadecane-5,9-dione] | – | – |
| – | – | – | 9.30 | 8.46 | 7.0 | CC[C@H]1C(=O)C2(CCC2)[C@@H](O)CC(=O)O[C@H](/C(F)=C/c2csc(C)n2)C[C@@H]2O[C@]2(C)CCC[C@H](C)[C@@H]1O [Example 14A, (1S,3S(Z),7S,10R,11S,12S,16R)-7,11-Dihydroxy-12,16-dimethyl-10-ethyl-3-(1-fluoro-2-(2-methyl-4-thiazolyl)ethenyl) 8,8-(1,3-trimethylene)-4,17-dioxabicyclo[14.1.0]hepta-decane-5,9-dione] | – | active strength in comparison to reference compound epothilone B [1]: comparable or significantly higher active strength |
